Values of other authors, collected in patent publication US20250041489A1, “A Drug Coating Formulation for a Sirolimus Coated Balloon Catheter” (C. R. Bard, Inc., priority 2021, published 2025).

Settings: compared to amorphous sirolimus

## CO[C@H]1C[C@@H]2CC[C@@H](C)[C@@](O)(O2)C(=O)C(=O)N2CCCC[C@H]2C(=O)O[C@H]([C@H](C)C[C@@H]2CC[C@@H](O)[C@H](OC)C2)CC(=O)[C@H](C)/C=C(\C)[C@@H](O)[C@@H](OC)C(=O)[C@H](C)C[C@H](C)/C=C/C=C/C=C/1C [crystalline sirolimus, sirolimus]
  Half-life of sirolimus on the surface of a balloon: four weeks
